We go through three molecules from patent publication US10493158B2, “Pharmaceutical compositions for the treatment of inflammatory disorders” (GALAPAGOS NV, priority 2014, dated 2019).

Structures can show the parent of a compound that is named as a salt.

Data set [1] in a line: Dog bioavailability study (PK after single oral administration of capsules). Particulars: for Cmax / Exposure AUC / Tmax: listed as HCl•trihydrate. The format is in vivo, beagle dogs. The protocol: The dogs are not fasted before dosing, and have free access to water. Every day of the treatment, a half food ration is provided after the T0 blood sampling, 8 to 17 min before treatment, and the second half ration is given just after dosing or 1 h after treatment for period 2. A 3 days washout period is ensured between treatments.
The capsule composition is described in the table below.
The capsules are administered orally with water (5-10 mL), to provide good oesophageal transit. Each animal is checked at least once daily.
Blood is collected from the jugular vein into lithium heparinised tubes at T0 (before food administration) and then at 1 h, 2 h, 4 h, 6 h, 8 h, 10 h, and 24 h post treatment.
Plasma is then obtained from blood by centrifugation (2500 g for 10 min at 4° C.), and stored at −20° C. until analysis.
After vortex mixing and centrifugation at 4° C., the supernatants are diluted with a 0.5 volume of HPLC grade water in a midi-eppendorf 96-well plate. The plate is sealed and shaken to ensure sample homogeneity prior to analysis.
Pharmacokinetic analysis is performed using WinNonlin™ software version 5.3, using concentrations from individual animals. Non-compartmental analysis is applied to determine the PK parameters (Cmax, Tmax, AUC0-last, t1/2, etc . . . )
Concentrations below the limit of detection are set to zero for descriptive statistics and PK parameter calculations.

Data set [2] is described as follows: Accelerated stability study of Compound 1.HCl.3H2O (FT-IR, DSC, XRPD). The format is physicochemical. Particulars: 3 months. The source says: Samples of [Compound 1. HCl.3H2O] are stored under conditions to evaluate chemical stability and physical stability as described in the table below: [table] Samples are taken at T0, then every month up to 3 months, and analysed by FT-IR, DSC, and XRPD.

Data set [3] is described as follows: Thermodynamic aqueous solubility by HPLC. Particulars: water. The format is physicochemical. The protocol: (§1) The mixture is cooled to 25° C. at 1° C./min and stirred at 25° C. for 22 h. The solid is isolated by vacuum filtration and dried under suction.
Data set [4] in a line: Salt study: XRPD analysis / hygroscopicity of the hydrochloric acid salt. The format is physicochemical. Particulars: salt containing 4-5% water. The protocol:
as §1

Where [5] appears, read: dogs, oral capsules, on average and at the 2 capsule strengths.
Where [6] appears, read: male beagle dogs, single oral administration, capsules, dose 25 mg/kg.
Setting [7] is: male beagle dogs, single oral administration, capsules, dose 100 mg/kg.

As usually defined, the AUC is concentration integrated over time. With `O=C(Nc1nc2cccc(-c3ccc(CN4CCS(=O)(=O)CC4)cc3)n2n1)C1CC1` [Compound 1, cyclopropanecarboxylic acid {5-[4-(1,1-dioxo-thiomorpholin-4-ylmethyl)-phenyl]-[1,2,4]triazolo[1,5-a]pyridin-2-yl}-amide], the exposure (AUC) in data set [1] (male, beagle, dog, plasma, po, 100 mg/kg, male beagle dogs, single oral administration, capsules, dose 100 mg/kg, read-out: Exposure AUC) is 11100 ng·h/mL.

As a reminder, the half-life is the time in which the quantity being followed falls by half. The term Cmax denotes the peak of the concentration-time curve. Broadly, the Tmax is the time from dosing to the highest level. In data set [1] (dog, plasma, male beagle dogs, single oral administration, one range printed across both forms and both doses), `O=C(Nc1nc2cccc(-c3ccc(CN4CCS(=O)(=O)CC4)cc3)n2n1)C1CC1` [Compound 1.HCl.3H2O, cyclopropanecarboxylic acid {5-[4-(1,1-dioxo-thiomorpholin-4-ylmethyl)-phenyl]-[1,2,4]triazolo[1,5-a]pyridin-2-yl}-amide] came in with a half-life of 4.43 to 8.96 h. For the same molecule, in data set [1] (setting [5]), the “in vivo exposure compared with Compound 1 (free base)” value is “improved exposure” and the “rate of absorption compared with Compound 1 (free base)” value is given as “more rapidly absorbed”. In data set [1] (setting [6]), the Cmax was 3050 ng/mL, the “Exposure AUC” value is 33600 ng·h/mL and the time of peak concentration (Tmax) turned out to be 2.0 h. For the same molecule, in data set [1] (setting [7]), the peak concentration (Cmax) amounted to 2630 ng/mL, the “Exposure AUC” value came to 21700 ng·h/mL and the Tmax worked out at 2.0 h. In data set [2] (25° C./60% RH open, 40° C./75% RH open, 50° C. closed, RT/<5%, 56%, 75% RH open), the “chemical and physical stability” value is recorded as “stable under all conditions”. Moreover, the change in crystallinity result in data set [2] (all storage conditions of Table VI) was “no change in crystallinity”.

A word on the solubility: it is the dissolved amount per volume that the medium holds. Low values mean a poorly soluble substance, high ones a readily soluble substance. `O=C(Nc1nc2cccc(-c3ccc(CN4CCS(=O)(=O)CC4)cc3)n2n1)C1CC1` [hydrochloric acid salt of Compound 1, cyclopropanecarboxylic acid {5-[4-(1,1-dioxo-thiomorpholin-4-ylmethyl)-phenyl]-[1,2,4]triazolo[1,5-a]pyridin-2-yl}-amide] returned a solubility in data set [3] of 1900 µg/mL. The “hygroscopicity of the salt” value in data set [4] is “non-hygroscopic”.
